Test results published in PMC12864978, “Covalent modification of a glutamic acid inspired by HaloTag technology” (Nature Communications, 2026).
Like-named read-outs stand apart in the source and are kept apart here.

Assays:
Mouse plasma stability = format: in vitro ADME; settings: 50% mouse plasma in PBS, within an hour
From the text: (§1) plotted as mean ± standard deviation, representative of 3 technical replicates ( N = 3). Unpaired, two-
(§2) Data were plotted as mean ± standard deviation, representative of 3 technical replicates in the presence

PDEδ [1] = biological target: T1, PDEδ (Homo sapiens, UniProt O43924); experiment: Differential scanning fluorimetry (NanoDSF); format: binding; set-up: His tag; made in house; host or cells: Escherichia coli Rosetta (BL21DE3), pET plasmids
Method: Afterwards, a sample of the solution was cooled down to room temperature and was loaded onto a capillary, followed by the measurement of fluorescence intensities at 350 nm and 330 nm from 20 °C up to 90 °C (with a rate of increment of 1 °C/min) using the Prometheus Panta device (NanoTemper® Technologies, DE).

[2] = Compound stability in aqueous buffers; format: physicochemical
Method: Compound (1 mM) was incubated with the respective buffers (HEPES 20 mM, 150 mM NaCl, pH = 7.5; 0.2 M sodium acetate buffer, pH = 5.6; 0.2 M sodium citrate buffer, pH = 6.2; 0.2 M potassium phosphate buffer, pH = 7.4, 1 mM EDTA, with or without 10 mM GSH), with 1% DMSO adjusted for all conditions. […] Per cent (%) compound remaining in the solution was estimated by the ratio of areas under the curve, and data plotted were fitted to pseudo-1st kinetics in the calculation of rate constants (k) and half-lives (t1/2), where k is the negative slope of a linear regression of In (% compound remaining) over time. Half-lives (t1/2) in respective buffers and half-lives for GSH adduct formation (t1/2 GSH) were calculated with the following equations:1 t1/2=In2/k 2 kGSH=ktotalconsumptioninphosphatebufferinpresenceofGSH−k(phosphatebufferinabsenceofGSH) 3 t1/2GSH=In2/k(GSH) […]
a, Percentage (%) of compound remaining was monitored by HPLC-MS and data was fitted to pseudo-first kinetics in calculation of rate constants (k) and half-lives (t1/2) in respective buffers, where k is the negative slope of a linear regression of In (% compound remaining) over time and t 1/2 = In2/k. Initial […]
Initial GSH concentration =

HAP1 PDEδ knockout cells = experiment: Relative growth after 72 h; format: cell-based; settings: 0 - 50 µM
Method: (§3) Real-time cell analysis (RTCA) was conducted using an Incucyte S3 live-cell analysis system (Sartorius AG, Germany). […] Following attachment overnight, the medium was replaced with fresh medium containing test compounds, with all conditions adjusted to contain 0.5% DMSO. […] Phase-contrast images (2 images per well) were automatically captured at 2-h intervals until control wells (DMSO-treated) reached full confluency. Cell growth was quantified using the instrument’s integrated Basic Analyser module by applying a confluence mask to calculate the percentage of phase area confluence. […] Dose-response curves were generated and fitted via four-parameter variable slope nonlinear regression to determine cellular IC₅₀ values.

[3] = Mouse liver microsomal stability; format: in vitro ADME
From the text: as §1, §2

PDEδ [4] = biological target: T1, PDEδ; experiment: Covalent modification of PDEδ by MALDI mass spectrometry; format: binding; set-up: His tag; made in house; host or cells: Escherichia coli Rosetta (BL21DE3), pET plasmids
Method: The solution was briefly centrifuged before a sample was taken at the designated time for analysis by MALDI. […] Mass spectra were obtained over the m/z range 15,000–25,000 using a Bruker UltrafleXtreme XIAL DI-TOF/TOF mass spectrometer. Percentages of covalent adduct formation were estimated by the relative intensity of the respective peaks in MALDI spectra.
1. Supplementary Figures and Tables
PDEδ (20 µM) was incubated with compounds (60 µM) in HEPES
Percentages of covalent adduct formation were estimated by the relative intensity of the respective peaks in MALDI spectra. Data are presented as mean ± s.e.m.
Apparent pseudo -first order kobs was estimated by percentages of covalent adduct formation at 2 hours by MALDI. Plot of kobs (h-1) against concentration (µM) was fitted by GraphPad […]
Prism Michaelis-Menten model and separate values for kinact and KI were obtained to calculate apparent […]
PDEδ (20 µM) was incubated with
Data are presented as mean ± s.e.m.
HEPES buffer, n = 3 for the rest). One-way ANOVA with matched time-points, with Geisser-

MIA PaCa-2 cells = experiment: Real-time cell analysis (Incucyte) of proliferation; format: cell-based, human
Method: as §3

SW480 cells = experiment: as above; format: cell-based, human; settings: Homo sapiens, 72 h, read-out: cellular IC50
Method: as §3

PA-TU-8902 cells = experiment: as above; format: cell-based, human
Method: as §3

BxPC-3 cells = experiment: as above; format: cell-based, human; settings: Homo sapiens, 72 h, read-out: cellular IC50
Method: as §3

NCI-H358 cells = experiment: as above; format: cell-based, human; settings: Homo sapiens, NCI-H358, 72 h, NCI-H358; 72 h; read-out: cellular IC50
Method: as §3

PDEδ [5] = biological target: T1, PDEδ; experiment: Competitive fluorescence polarisation assay (FA probe displacement); format: binding; set-up: His tag; made in house; host or cells: Escherichia coli Rosetta (BL21DE3), pET plasmids
PDEδ in Jurkat cells = biological target: T2, PDEδ in Jurkat cells (Homo sapiens, UniProt O43924); experiment: CETSA in intact cells (in-cell CETSA); format: cell-based; settings: 15 min at 37 °C
T2 construct: host or cells: Jurkat
Method: Cells were collected and resuspended in cold PBS and further washed thrice in cold PBS. […] Afterwards, NP40 alternative was added to a final concentration of 0.4% (v/v), and cells were lysed by five consecutive freeze/thaw cycles. […] Supernatants were transferred to new tubes, and equal volumes of each sample were loaded on an SDS-PAGE gel and subjected to immunoblot analysis.

For `Cc1ccc(-n2nc3c(=O)n(CCCCS(=O)(=O)N(CCc4cccc(CCBr)c4)CC4CCNCC4)nc(C)c3c2C)cc1` [6a], the “stability in mouse plasma” value (Mouse plasma stability) was “stable in mouse plasma”, the “ΔTm (NanoDSF)” value (PDEδ [1]; 2 h incubation) was 13.5 ± 0.2 °C and the ΔTm at 60 µM (PDEδ [1]; PDEδ 20 µM, compound 60 µM, mean ± s.d., Fig. 2e, read-out: melting temperature shift ΔTm (NanoDSF)) was 15.5 ± 1 °C. The half-life at 1 mM ([2]; HEPES buffer, pH 7.5, 37 °C, compound 1 mM, read-out: half-life t1/2 in HEPES buffer (converted)) was 480 h, the half-life at 1 mM ([2]; acetate buffer, pH 5.6, 37 °C, read-out: half-life t1/2 in acetate buffer (converted)) was 145 h and the “growth impairment of HAP1 PDEδ knockout cells compared to HAP1 wild type cells” value (HAP1 PDEδ knockout cells) was “less pronounced”. The CLhep predicted ([3]; liver microsomes, translated from intrinsic clearance, mouse, read-out: in vivo clearance (simplified well-stirred model) (converted)) was roughly 66.7 mL/min/kg, the “microsomal stability in the absence of co-factor NADPH” value ([3]; mouse liver microsomes) was “metabolically stable” and the microsomal CLint ([3]; mouse liver microsomes 0.5 mg/ml, + NADPH, read-out: intrinsic clearance) was 117 µL/min/mg. For the same compound, the “time to almost complete metabolism” value ([3]; mouse, liver microsomes, + NADPH) was no more than 50 min, the half-life ([3]; mouse, liver microsomes, + NADPH, read-out: half-life T1/2 in mouse liver microsomes) was 0.197 h and the KI (PDEδ [4]; Michaelis-Menten fit of kobs) was 464.9 µM. For the same compound, the “covalent modification of PDEδ in different solvents” value (PDEδ [4]; buffers of various pH, 8 h and 24 h) was “pH-independent”, the “% labelling at 24 h” value (PDEδ [4]; representative MALDI spectrum, Fig. 2c) was 100% and the “% Growth rate of MIA PaCa-2 cells” value (MIA PaCa-2 cells; 25 µM) was 15%. The “% Growth rate of MIA PaCa-2 cells” value (MIA PaCa-2 cells; 50 µM) was 15%, the IC50 (MIA PaCa-2 cells; Homo sapiens, MIA PaCa-2, 72 h, read-out: cellular IC50) was 7 ± 0.4 µM and the “difference in cellular potency vs Deltazinone 1” value (MIA PaCa-2 cells; MIA PaCa-2) was greater than 7 fold. The IC50 (SW480 cells) was 18.6 ± 3 µM, the “% Growth rate of PA-TU-8902 cells” value (PA-TU-8902 cells; 25 µM) was 16% and the “% Growth rate of PA-TU-8902 cells” value (PA-TU-8902 cells; 50 µM) was 26%. For the same compound, the IC50 (PA-TU-8902 cells; Homo sapiens, PaTu 8902, PA-TU-8902, 72 h, read-out: cellular IC50) was 6.8 ± 0.5 µM, the IC50 (BxPC-3 cells) was 20 ± 1.3 µM and the IC50 (NCI-H358 cells) was 6.3 ± 3.5 µM. The IC50 (PDEδ [5]; 37 °C overnight) was 0.0065 ± 0.0035 µM, the IC50 (PDEδ [5]; PDEδ 40 nM, FA probe 24 nM, room temperature overnight) was 0.0152 ± 0.0086 µM and the ΔTm at 10 µM (PDEδ in Jurkat cells) was 9.3 ± 0.2 °C.
